Values quoted from earlier work as cited in patent US12527803B2, “Testosterone dodecanoate compositions and methods” (priority 2023, dated 2026).

Columns and labels:
[1] = test system: Candida albicans, Aspergillus niger, and Fusarium spp
[2] = test system: Propionibacterium acnes, Staphylococcus aureus, Eschericia coli, Streptococci, Mycobacterium tuberculosis, Clostridium difficile and other bacteria
[3] = test system: Vesicular stomatitis virus, Herpes simplex virus, Visna virus, Respiratory syncytial virus, and Junin virus
[4] = test system: normotensive and hypertensive rats
[5] = test system: Enterhemorrhagic E. Coli (EHEC) biofilms; details: p<0.001 for lauric acid
[6] = test system: prostatic hyperplasia induced by testosterone; details: rats

SMILES | Antifungal benefit [1] | Antibacterial benefit [2] | Antiviral benefit [3] | Effect on BP and heart rate ([4]; normotensive and hypertensive rats) | Effect on HDL levels ([4]; rat, in vivo) | Repression of EHEC biofilms versus control [5] | Effect on prostatic hyperplasia induced by testosterone [6]
CCCCCCCCCCCC(=O)O [lauric acid] | antifungal benefit | antibacterial benefit | antiviral benefit | reduce the BP and heart rate | increase HDL levels | repressed EHEC biofilms significantly differently than the control | prevent the prostatic hyperplasia induced by testosterone
CCCCCCCCCCC(=O)O [undecanoic acid] | – | – | – | – | – | did not | –
